Laboratory results as given in the NIST ThermoML archive (doi:10.1021/je0502804).
Numbers after ± are expanded uncertainties.

Conditions: Crystal; visual observation

`Clc1cc(Cl)c(Cl)nc1Cl` [2,3,5,6-tetrachloropyridine] showed a Normal melting temperature of 90.00 ± 0.5 °C.

`Clc1nc(Cl)c(Cl)c(Cl)c1Cl` [pentachloropyridine] showed a Normal melting temperature of 124.00 ± 0.5 °C.
